Data reported in US20040019068A1, “Novel remedies or preventives for angiostenosis” (priority 2000, published 2004).

Legend:
[1] = rat, in vivo, po, 100 mg/kg
From the text: A compound employed in the invention has a low toxicity, and any compound undergoes a characteristically low accumulation of the toxicity when given continuously. […] In addition, another characteristic advantage is the possibility of giving orally as a therapeutic or prophylactic agent for an angiostenosis.

[2] = system: balloon-injured right carotid artery; assay: Restenosis test in dog carotid artery balloon injury model; assay type: in vivo, dog (beagle); conditions: 28 days after balloon injury
Method: 21 Male adult beagles (9.4 to 11.4 kg) purchased from NIPPON NOSAN KOGYO were anesthetized with an intravenous administration of pentobarbital sodium at 30 mg/kg per animal. After immobilizing each animal in the spine position, the cervical part was incised and the right and left carotid arteries were exposed. After intravenous administration of 1000 U of heparin sodium, the right carotid artery branch was incised and the tip of a balloon catheter (Baxter 4 Fr, 40 cm) was inserted from the carotid artery to the aortic arch. With the balloon being inflated with application of pressure, the catheter was drawn out to injure the intima of the blood vessel. This procedure was repeated 5 times, and the balloon catheter was taken out, and the incision in the blood vessel was ligated. After suturing the skin incision, 1000 U of heparin sodium and 100 mg of ampicillin sodium were administered intramuscularly for the postoperative maintenance.
3 Groups each including 7 balloon-injured dogs were divided as the high dose treatment group, low dose treatment group and non-treatment group. 2-(5-Formylamino-6-oxo-2-phenyl-1,6-dihydropyrimidin-1-yl)-N-[2,3-dioxo-1-phenylmethyl-6-(2-pyridyloxy)]hexylacetamide (No. 10) was given at a dose of 1 mg/kg in the high dose treatment group and at 0.2 mg/kg in the low dose treatment group once a day in capsules every day over a period of 33 days in total from 5 days before the balloon injury through the day of the blood vessel sampling. In the non-treatment group, vacant capsules were given every day. In all groups, 50 ml or more of a tap water was given forcibly after administration.
Twenty eight (28) days after the balloon injury, 30 mg/kg of pentobarbital sodium was given intravenously to anesthetize. After exsanguination, the right carotid artery as an injured position was isolated, and cut into 3 pieces. About 5 mm was cut out of each of the sections which were distal, proximal and center with regard to the heart. The left carotid artery was also isolated as a non-injury position, from the center of which about 5 mm was cut off, and each was fixed in 10% formalin neutral buffer solution.
Each vascular tissue embedded in a paraffin was shaved into sections, and subjected to a Hematoxylin-Eoshin staining. The intraluminal area, the area inside the intima and the area inside the media were measured using Olympus Image Analyzer Model VM-30.
Based on the areas obtained in (D) described above and using the following equation, a vascular stenosis ratio and a vascular lumen ratio of each position were calculated, and the mean of the three positions was regarded as the value of each individual animal. In the equation, A is an area inside the intima, B is an intraluminal area and C is an area inside the media. […]

[3] = system: implanted blood vessel (jugular vein implanted into the carotid artery); assay: Restenosis test in dog bypass graft model; assay type: in vivo, dog (beagle); conditions: implanted blood vessel 28 days after bypass grafting, 5 mg/kg orally once a day for 33 days
Method: (§1) 10 Male adult beagles (8 to 10 kg) purchased from NIPPON SLC were anesthetized with an intravenous administration of pentobarbital sodium at 35 mg/kg per animal. The cervical position was incised, and a right jugular vein was isolated and implanted into the carotid artery on the same side (J.Hum.Hypertens., 12 (suppl.1), S21(1999)). After implantation, the incision was sutured and the animal was raised as usual after coming out from the anesthetic.
(§2) 2 Groups each including 5 dogs, which had been subjected to the bypass grafting, were provided as the treatment group and the non-treatment group. In the treatment group, 2-(5-formylamino-6-oxo-2-phenyl-1,6-dihydropyrimidin-1-yl)-N-[2,3-dioxo-1-phenylmethyl-6-(2-pyridyloxy)]hexylacetamide (No. 10) was orally administered at a dose of 5 mg/kg once a day in capsules every day over a period of 33 days in total from 5 days before the bypass grafting through the day of the blood vessel sampling.
28 Days after the bypass grafting, 35 mg/kg of pentobarbital sodium was given intravenously to anesthetize. The implanted vein and the jugular vein on the other side were isolated, and each was cut at the center. […]
Based on the areas obtained in (D) described above and using the following equation, a vascular stenosis ratio of each individual animal was calculated. […]

chymase = target: T1, chymase (Canis lupus familiaris, UniProt P21842); assay: Chymase activity measurement in implanted blood vessel, dog bypass graft model; assay type: in vivo, dog (beagle); conditions: implanted blood vessel 28 days after bypass grafting; 5 mg/kg orally once a day in capsules for 33 days; angiotensin I substrate
T1 construct: An isolated blood vessel was combined with a 10-fold volume (w/v) of a 20 mM sodium phosphate buffer solution (pH7.4); from tissue; host or cells: implanted jugular vein graft of beagle dogs (homogenate, high-salt/detergent extract supernatant)
T1 sequence (P21842 22-249): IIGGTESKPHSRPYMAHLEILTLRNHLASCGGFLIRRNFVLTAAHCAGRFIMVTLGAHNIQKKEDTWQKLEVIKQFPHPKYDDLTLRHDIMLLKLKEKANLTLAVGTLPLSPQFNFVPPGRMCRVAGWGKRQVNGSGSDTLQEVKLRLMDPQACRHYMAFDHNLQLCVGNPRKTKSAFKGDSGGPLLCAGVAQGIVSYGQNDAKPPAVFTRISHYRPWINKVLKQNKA
Method: (A) Bypass Graft Model Preparation
as §1, §2
28 Days after the bypass grafting, 35 mg/kg of pentobarbital sodium was given intravenously to anesthetize. […]
The chymase activity was measured using angiotensin I as a substrate. […] Immediately after completion of the reaction, angiotensin II produced was quantified using a high performance liquid chromatography, and the chymase activity of the tissue was calculated.

[4] = clinical tests in Japan (RINSHO IYAKU, 12(1), 65 (1996)); cited from earlier work
[5] = High dose 1 mg/kg once a day in capsules for 33 days, p<0.05 vs non-treatment

| Structure (SMILES) | toxicological change [1] | Vascular lumen ratio [2, 5] [%] | Vascular stenosis ratio [2, 5] [%] | Vascular stenosis ratio ([2]; Low dose 0.2 mg/kg once a day in capsules for 33 days) [%] | Vascular lumen ratio ([2]; Low dose 0.2 mg/kg once a day in capsules for 33 days, B/Cx100) [%] | intima area [3] [mm2] | Vascular stenosis ratio ([3]; [(A-B)/(C-A)]x100) [%] | Chymase activity (chymase) [mU/mg protein] | side effect in clinical tests [4] |
| --- | --- | --- | --- | --- | --- | --- | --- | --- | --- |
| O=CNc1cnc(-c2ccccc2)n(CC(=O)NC(Cc2ccccc2)C(=O)C(=O)CCCOc2ccccn2)c1=O (stereo not drawn) [Compound No. 10, 2-(5-formylamino-6-oxo-2-phenyl-1,6-dihydropyrimidin-1-yl)-N-[2,3-dioxo-1-phenylmethyl-6-(2-pyridyloxy)]hexylacetamide] | no toxicological change | 41.6 ± 1.1 | 10.5 ± 1.8 | 13.6 ± 2.0 | 38.4 ± 2.0 | 1.78 ± 0.12 | 30.9 ± 8.8 | 4.88 ± 0.53 | – |
| COc1ccc(/C=C/C(=O)Nc2ccccc2C(=O)O)cc1OC [tranilast] | – | – | – | – | – | – | – | – | hepatic dysfunction as a highly frequent side effect |
